Test results taken from paper PMC9182007, “Statistical Methods in the Study of Protein Binding and Its Relationship to Drug Bioavailability in Breast Milk” (Molecules, 2022).
Like-named read-outs stand apart in the source and are kept apart here.

Experiments:
[1] = target: T1, bovine serum albumin (BSA) (Bos taurus, UniProt P02769); assay: RP TLC on plates impregnated with bovine serum albumin; format: binding; details: for RP (Rf value from the RP plate impregnated with 2 mg/mL BSA solution): Table S8, external group; for RP (Rf, BSA-impregnated RP plate): Table S4, RP plate impregnated with 2 mg/mL BSA, pH 7.4 mobile phase
T1 construct: purchased Sigma Aldrich
T1 sequence (P02769 25-607): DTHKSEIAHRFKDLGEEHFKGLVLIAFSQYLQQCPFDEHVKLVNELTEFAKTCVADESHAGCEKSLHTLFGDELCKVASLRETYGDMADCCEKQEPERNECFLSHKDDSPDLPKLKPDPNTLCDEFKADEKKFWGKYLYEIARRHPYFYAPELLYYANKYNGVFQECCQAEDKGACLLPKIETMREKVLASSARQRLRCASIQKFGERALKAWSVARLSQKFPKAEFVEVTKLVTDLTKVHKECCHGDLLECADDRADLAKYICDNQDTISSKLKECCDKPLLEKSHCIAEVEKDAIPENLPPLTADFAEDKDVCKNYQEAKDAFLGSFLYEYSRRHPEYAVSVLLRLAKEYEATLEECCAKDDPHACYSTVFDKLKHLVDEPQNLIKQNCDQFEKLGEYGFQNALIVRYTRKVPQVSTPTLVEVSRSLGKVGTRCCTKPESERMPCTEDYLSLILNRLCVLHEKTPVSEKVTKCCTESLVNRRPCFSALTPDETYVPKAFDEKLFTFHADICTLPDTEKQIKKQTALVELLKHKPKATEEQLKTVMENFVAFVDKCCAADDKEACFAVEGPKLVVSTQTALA

[2] = RP TLC on non-impregnated control plates; format: physicochemical; details: for CRP (Rf value from the non-impregnated RP plate, control): Table S8, external group; for CRP (Rf, control RP plate): Table S4, non-impregnated RP plate, acetonitrile/acetate buffer pH 7.4/methanol 60:20:20
plasma protein = details: ref DrugBank [7], cited from earlier work
[3] = target: human serum albumin (HSA) (Homo sapiens, UniProt P02768); details: for k HSA: Table S5, retention factor, HSA column, pH 7.4, 25 degrees Celsius
Chain of human serum albumin (HSA) (P02768 25-609): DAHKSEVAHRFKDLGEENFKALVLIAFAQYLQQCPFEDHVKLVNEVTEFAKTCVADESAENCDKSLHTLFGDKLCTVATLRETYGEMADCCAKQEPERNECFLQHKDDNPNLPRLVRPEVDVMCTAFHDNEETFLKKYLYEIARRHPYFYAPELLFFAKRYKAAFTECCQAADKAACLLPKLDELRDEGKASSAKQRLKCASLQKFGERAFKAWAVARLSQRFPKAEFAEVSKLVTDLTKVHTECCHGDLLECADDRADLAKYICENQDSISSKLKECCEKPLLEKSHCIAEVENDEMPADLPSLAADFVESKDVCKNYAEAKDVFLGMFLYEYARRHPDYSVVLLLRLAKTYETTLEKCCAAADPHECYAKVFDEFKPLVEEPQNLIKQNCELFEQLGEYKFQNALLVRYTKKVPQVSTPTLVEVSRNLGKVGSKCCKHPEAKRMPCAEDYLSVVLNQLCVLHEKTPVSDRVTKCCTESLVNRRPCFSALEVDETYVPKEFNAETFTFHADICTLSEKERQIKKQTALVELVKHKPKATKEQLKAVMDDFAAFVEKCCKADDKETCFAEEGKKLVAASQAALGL

[4] = HPLC on immobilized artificial membrane column (HPLCIAM); format: physicochemical; details: for log k IAM: Table S5, IAM column, pH 7.4; for k IAM: Table S5, retention factor, IAM column, phosphate buffer pH 7.4/acetonitrile 80:20; for kIAM / log kIAM: Table S9, external group
[5] = target: T1, bovine serum albumin (BSA); assay: NP TLC on plates impregnated with bovine serum albumin; format: binding; details: for NP (Rf, BSA-impregnated NP plate): Table S3, NP plate impregnated with 2 mg/mL BSA, pH 7.4 mobile phase; for NP (Rf value from the NP plate impregnated with 2 mg/mL BSA solution): Table S8, external group
[6] = NP TLC on non-impregnated control plates; format: physicochemical; details: for CNP (Rf, control NP plate): Table S3, non-impregnated NP plate, acetonitrile/acetate buffer pH 7.4/methanol 60:20:20; for CNP (Rf value from the non-impregnated NP plate, control): Table S8, external group
[7] = Table S1, coded 1/0; ref DrugBank [7]; cited from earlier work
[8] = Table S6, external group (n = 38), given as fraction
[9] = Table S1, plasma protein binding given as fraction
[10] = human, immobilized hsa column, pH 7.4

Row | log k IAM [4] | k IAM [4] | Compound | RP (Rf, BSA-impregnated RP plate) [1] | CRP (Rf, control RP plate) [2] | NP (Rf, BSA-impregnated NP plate) [5] | PB (plasma protein; [9]) | k HSA [3] | CNP (Rf, control NP plate) [6] | log k HSA ([3]; Table S5, HSA, pH 7.4) | also measured
1 | 0.04 | 1.11 | CCCCCOC(=O)Nc1nc(=O)n([C@@H]2O[C@H](C)[C@@H](O)[C@H]2O)cc1F [capecitabine] | 0.89 | 0.90 | 0.92 | 0.6 |  | 0.92 |  | 
2 | 0.03 | 1.08 | O=C(N[C@H](CO)[C@H](O)c1ccc([N+](=O)[O-])cc1)C(Cl)Cl [chloramphenikol] | 0.89 | 0.89 | 0.97 |  | 0.61 | 0.99 | -0.21 | 
3 | 0.12 | 1.32 | NS(=O)(=O)c1cc(C2(O)NC(=O)c3ccccc32)ccc1Cl (centres unmarked) [chlortalidone] |  |  | 0.96 | 0.75 | 0.85 | 0.96 |  | 
4 | 0.84 | 6.92 | C[C@]12CC[C@@H]3c4ccc(OC(=O)c5ccccc5)cc4CC[C@H]3[C@@H]1CC[C@@H]2O [estradiol benzoate] | 0.62 | 0.63 | 0.98 | 0.95 |  | 0.97 |  | 
5 | 1.47 | 29.40 | C[C@]12CC[C@@H]3c4ccc(O)cc4CC[C@H]3[C@@H]1CCC2=O [estrone] |  | 0.79 | 0.99 | 0.95 |  | 0.99 |  | 
6 | 1.38 | 23.74 | O=C(CCCN1CCC(O)(c2ccc(Cl)cc2)CC1)c1ccc(F)cc1 [haloperidol] | 0.64 | 0.61 | 0.65 | 0.92 | 4.8 | 0.66 | 0.68 | 
7 | 1.54 | 34.99 | CC(=O)[C@H]1CC[C@H]2[C@@H]3CCC4=CC(=O)CC[C@]4(C)[C@H]3CC[C@]12C [progesterone] | 0.68 | 0.71 | 0.96 | 0.975 | 5.7 | 0.96 | 0.76 | 

The next lines start with the compound.

Row | Compound | log k IAM [4] | k IAM [4] | RP (Rf, BSA-impregnated RP plate) [1] | CRP (Rf, control RP plate) [2] | NP (Rf, BSA-impregnated NP plate) [5] | PB (plasma protein; [9]) | k HSA [3] | CNP (Rf, control NP plate) [6] | log k HSA ([3]; Table S5, HSA, pH 7.4) | also measured
8 | CC(=O)Nc1nnc(S(N)(=O)=O)s1 [acetazolamid] |  |  |  |  |  |  |  |  |  | RP (Rf value from the RP plate impregnated with 2 mg/mL BSA solution) [1]: 0.96; CRP (Rf value from the non-impregnated RP plate, control) [2]: 0.97; PB (plasma protein; [8]): 0.98; kHSA [3]: 0.74; log kHSA [3]: -0.13
9 | COc1ccc(CCN2CCC(Nc3nc4ccccc4n3Cc3ccc(F)cc3)CC2)cc1 [astemizol] | 1.42 | 26.27 | 0.62 | 0.65 | 0.61 | 0.967 | 13.32 | 0.62 |  | log k HSA [3, 10]: 1.12
10 | OC(CCN1CCCCC1)(c1ccccc1)C1CC2C=CC1C2 (centres unmarked) [biperiden] | 1.62 | 41.47 | 0.85 | 0.87 | 0.65 | 0.6 | 0.58 | 0.68 |  | log k HSA [3, 10]: -0.24
11 | C=CCN1C[C@H](C(=O)N(CCCN(C)C)C(=O)NCC)C[C@@H]2c3cccc4[nH]cc(c34)C[C@H]21 [carbegoline] | 1.23 | 17.05 | 0.68 | 0.68 | 0.68 | 0.41 | 3.23 | 0.68 | 0.51 | 
12 | CN(C)CCOC(c1ccccc1)c1ccccc1 [diphenhydramin] | 0.56 | 3.66 | 0.54 | 0.58 | 0.33 | 0.985 | 1.88 | 0.42 | 0.27 | 
13 | CCOc1ccc(/C=C2\NCCc3cc(OCC)c(OCC)cc32)cc1OCC [drotaverine] | 1.49 | 31.24 | 0.58 | 0.55 | 0.59 |  | 1.91 | 0.61 |  | CNS+/- [7]: 1; log k HSA [3, 10]: 0.28
14 | CCC1(c2ccccc2)C(=O)NCNC1=O [primidone] |  |  |  |  |  |  |  |  |  | RP (Rf value from the RP plate impregnated with 2 mg/mL BSA solution) [1]: 0.97; CRP (Rf value from the non-impregnated RP plate, control) [2]: 0.93; kIAM [4]: 2.02; log kIAM [4]: 0.31; NP (Rf value from the NP plate impregnated with 2 mg/mL BSA solution) [5]: 0.93; kHSA ([3]; Table S9, external group): 0.22; log kHSA ([3]; Table S9, external group): -0.66; CNP (Rf value from the non-impregnated NP plate, control) [6]: 0.90
15 | CO[C@H]1/C=C/O[C@@]2(C)Oc3c(C)c(O)c4c(O)c(c(/C=N/N5CCN(C)CC5)c(O)c4c3C2=O)NC(=O)/C(C)=C\C=C\[C@H](C)[C@H](O)[C@@H](C)[C@@H](O)[C@@H](C)[C@H](OC(C)=O)[C@@H]1C [rifampicin] |  |  |  |  |  |  |  |  |  | RP (Rf value from the RP plate impregnated with 2 mg/mL BSA solution) [1]: 0.94; CRP (Rf value from the non-impregnated RP plate, control) [2]: 0.95; kIAM [4]: 8.37; log kIAM [4]: 0.92; NP (Rf value from the NP plate impregnated with 2 mg/mL BSA solution) [5]: 0.77; PB (plasma protein; [8]): 0.89; kHSA ([3]; Table S9, external group): 0.03; log kHSA [3, 10]: -1.53; CNP (Rf value from the non-impregnated NP plate, control) [6]: 0.73
16 | CC[C@H]1OC(=O)[C@H](C)[C@@H](O[C@H]2C[C@@](C)(OC)[C@@H](O)[C@H](C)O2)[C@H](C)[C@@H](O[C@@H]2O[C@H](C)C[C@H](N(C)C)[C@H]2O)[C@](C)(O)C[C@@H](C)/C(=N\OCOCCOC)[C@H](C)[C@@H](O)[C@]1(C)O [roxitromicin] |  |  | 0.79 | 0.80 | 0.92 | 0.96 | 1.03 | 0.91 | 0.01 | 
17 | CC(C)(C)NC[C@H](O)COc1nsnc1N1CCOCC1 [timolol] |  |  |  |  |  |  |  |  |  | RP (Rf value from the RP plate impregnated with 2 mg/mL BSA solution) [1]: 0.97; CRP (Rf value from the non-impregnated RP plate, control) [2]: 0.97; kIAM [4]: 2.88; log kIAM [4]: 0.46; NP (Rf value from the NP plate impregnated with 2 mg/mL BSA solution) [5]: 0.32; PB (plasma protein; [8]): 0.10; kHSA ([3]; Table S9, external group): 0.13; CNP (Rf value from the non-impregnated NP plate, control) [6]: 0.34
18 | CN(C)CCc1c[nH]c2ccc(C[C@H]3COC(=O)N3)cc12 [zolmitriptane] | 0.52 | 3.30 | 0.86 | 0.86 | 0.29 | 0.25 | 1.7 | 0.31 | 0.23 | 
